In brackets after ≈: the same amount, converted by molar mass. Positions of bridges follow the written chain, without caps; N, C: chain ends. Non-standard residues stand in square brackets, D forms with d. Residues, ends and D or L forms follow the SMILES beside them. *: point of attachment. Decanoyl(3R-OH) = CCCCCCC[C@@H](O)CC(=O)*; dIgl = N[C@@H](C(=O)O)C1Cc2ccccc2C1; Igl = N[C@H](C(=O)O)C1Cc2ccccc2C1; 3Pal = N[C@@H](Cc1cccnc1)C(=O)O; 4Pal = N[C@@H](Cc1ccncc1)C(=O)O; dChg = N[C@@H](C(=O)O)C1CCCCC1; dDab = NCC[C@@H](N)C(=O)O; Octanoyl = CCCCCCCC(=O)*; dDap = NC[C@@H](N)C(=O)O; Dab = NCC[C@H](N)C(=O)O
Key:
in vitro = details: human
How it was run: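 Cells (4000/well, pre-attached 24 h) then received 5 μM resazurin for 2 h, with fluorescence measured at ex 560/em 590.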

[1] = test system: S. aureus ATCC 25923, MSSA; details: ATCC 25923
How it was run: (§1)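 Mid-log cultures grown in Mueller Hinton broth at 37° C were tested by 2-fold broth microdilution at 5×10^5 CFU/mL final. Compounds were dissolved in water and tested over a final range of 32 to 0.015 μg/mL.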

[2] = test system: K. pneumoniae GN_102 PmxR; details: GN 102 PmxR
How it was run: as §1

A. baumannii GN_093 PmxR = details: GN 093 PmxR
How it was run: as §1

P. aeruginosa ATCC 27853 = details: ATCC 27853
How it was run: as §1

K. pneumoniae ATCC 13883 = details: ATCC 13883
How it was run: as §1

[3] = test system: P. aeruginosa GN_043, PmxR; details: polymyxin-resistant
How it was run: as §1

[4] = test system: K. pneumoniae ATCC BAA-2146, NDM-1 pos; details: ATCC BAA-2146
How it was run: as §1

[5] = test system: P. aeruginosa GN_105, PmxR; details: GN 105, PmxR
How it was run: as §1

[6] = test system: K. pneumoniae ATCC 700603, MDR; details: ATCC 700603
How it was run: as §1

A. baumannii ATCC 19606 = details: ATCC 19606
How it was run: as §1

E. coli ATCC 25922 = details: ATCC 25922
How it was run: as §1

[7] = test system: K. pneumoniae GN_106, PmxR; details: GN 106, PmxR
How it was run: as §1

Compound	CC50 at 24 h (in vitro)	MIC S. aureus ATCC 25923, MSSA [1]	MIC K. pneumoniae GN_102 PmxR [2]	MIC A. baumannii GN_093 PmxR (A. baumannii GN_093 PmxR)	MIC P. aeruginosa ATCC 27853 (P. aeruginosa ATCC 27853)	MIC K. pneumoniae ATCC 13883 (K. pneumoniae ATCC 13883)	MIC P. aeruginosa GN_043, PmxR [3]	MIC K. pneumoniae ATCC BAA-2146, NDM-1 pos [4]	MIC P. aeruginosa GN_105, PmxR [5]	MIC K. pneumoniae ATCC 700603, MDR [6]	MIC A. baumannii ATCC 19606 (A. baumannii ATCC 19606)	MIC E. coli ATCC 25922 (E. coli ATCC 25922)	MIC K. pneumoniae GN_106, PmxR [7]
CCCCCCC[C@@H](O)CC(=O)N[C@H](CN)C(=O)N[C@H]1CCNC(=O)[C@H](Cc2c[nH]c3ccccc23)NC(=O)[C@H](CCCNC(=N)N)NC(=O)[C@H](CCCCN)NC(=O)[C@H](CC(C)C)NC(=O)[C@@H](C2Cc3ccccc3C2)NC(=O)[C@H](CCN)NC1=O [compound 8896, 3(R)OH-nC9CO-D-Dap-cyc[L-Dab-L-Dab-D-indanylgly-L-Leu-L-Lys-L-Arg-L-Trp]] ({Decanoyl(3R-OH)}-[dDap][Dab][Dab][dIgl]LKRW; lactam 2-C)	102 µM	2 mg/L (≈ 1.65 µM)	16 mg/L (≈ 13.2 µM)	16 mg/L (≈ 13.2 µM)	4 mg/L (≈ 3.3 µM)	8 mg/L (≈ 6.59 µM)	4 mg/L (≈ 3.3 µM)	2 mg/L (≈ 1.65 µM)	2 mg/L (≈ 1.65 µM)	2 mg/L (≈ 1.65 µM)	8 mg/L (≈ 6.59 µM)	2 mg/L (≈ 1.65 µM)	4 mg/L (≈ 3.3 µM)
CCCCCCC[C@@H](O)CC(=O)N[C@H](CN)C(=O)N[C@H]1CCNC(=O)[C@H](Cc2c[nH]c3ccccc23)NC(=O)[C@H](CCN)NC(=O)[C@H](CCN)NC(=O)[C@H](C2Cc3ccccc3C2)NC(=O)[C@@H](C2Cc3ccccc3C2)NC(=O)[C@H](CCN)NC1=O [compound 8897, 3(R)OH-nC9CO-D-Dap-cyc[L-Dab-L-Dab-D-indanylgly-L-indanylgly-L-Dab-L-Dab-L-Trp]] ({Decanoyl(3R-OH)}-[dDap][Dab][Dab][dIgl][Igl][Dab][Dab]W; lactam 2-C)	27 µM	2 mg/L (≈ 1.68 µM)	4 mg/L (≈ 3.36 µM)	4 mg/L (≈ 3.36 µM)	4 mg/L (≈ 3.36 µM)	4 mg/L (≈ 3.36 µM)	2 mg/L (≈ 1.68 µM)	4 mg/L (≈ 3.36 µM)	2 mg/L (≈ 1.68 µM)	4 mg/L (≈ 3.36 µM)	4 mg/L (≈ 3.36 µM)	2 mg/L (≈ 1.68 µM)	4 mg/L (≈ 3.36 µM)
CCCCCCCC(=O)N[C@H](CCN)C(=O)N[C@H]1CCNC(=O)[C@H](Cc2c[nH]c3ccccc23)NC(=O)[C@H](CCN)NC(=O)[C@H](CCN)NC(=O)[C@H](C2Cc3ccccc3C2)NC(=O)[C@@H](Cc2ccccc2)NC(=O)[C@H](CCN)NC1=O [compound 8898, nC7CO-D-Dab-cyc[L-Dab-L-Dab-D-Phe-L-indanylgly-L-Dab-L-Dab-L-Trp]] (Octanoyl-[dDab][Dab][Dab][dF][Igl][Dab][Dab]W; lactam 2-C)	90 µM	4 mg/L (≈ 3.53 µM)	4 mg/L (≈ 3.53 µM)	16 mg/L (≈ 14.1 µM)	4 mg/L (≈ 3.53 µM)	8 mg/L (≈ 7.06 µM)	4 mg/L (≈ 3.53 µM)	4 mg/L (≈ 3.53 µM)	4 mg/L (≈ 3.53 µM)	4 mg/L (≈ 3.53 µM)	16 mg/L (≈ 14.1 µM)	4 mg/L (≈ 3.53 µM)	8 mg/L (≈ 7.06 µM)
CCCCCCC[C@@H](O)CC(=O)N[C@H](CCN)C(=O)N[C@H]1CCNC(=O)[C@H](Cc2c[nH]c3ccccc23)NC(=O)[C@H](CCN)NC(=O)[C@H](CCN)NC(=O)[C@H](CC(C)C)NC(=O)[C@@H](C2CCCCC2)NC(=O)[C@H](CCN)NC1=O [compound 8899, 3(R)OH-nC9CO-D-Dab-cyc[L-Dab-L-Dab-D-Chg-L-Leu-L-Dab-L-Dab-L-Trp]] ({Decanoyl(3R-OH)}-[dDab][Dab][Dab][dChg]L[Dab][Dab]W; lactam 2-C)	64 µM	8 mg/L (≈ 7.21 µM)	8 mg/L (≈ 7.21 µM)	16 mg/L (≈ 14.4 µM)	4 mg/L (≈ 3.61 µM)	8 mg/L (≈ 7.21 µM)	4 mg/L (≈ 3.61 µM)	4 mg/L (≈ 3.61 µM)	2 mg/L (≈ 1.8 µM)	4 mg/L (≈ 3.61 µM)	16 mg/L (≈ 14.4 µM)	4 mg/L (≈ 3.61 µM)	16 mg/L (≈ 14.4 µM)
CCCCCCCC(=O)N[C@H](CCN)C(=O)N[C@H]1CCNC(=O)[C@H](Cc2c[nH]c3ccccc23)NC(=O)[C@H](CCN)NC(=O)[C@H](CCN)NC(=O)[C@H](CC(C)C)NC(=O)[C@@H](C2Cc3ccccc3C2)NC(=O)[C@H](CCN)NC1=O [compound 8900, nC7CO-D-Dab-cyc[L-Dab-L-Dab-D-indanylgly-L-Leu-L-Dab-L-Dab-L-Trp]] (Octanoyl-[dDab][Dab][Dab][dIgl]L[Dab][Dab]W; lactam 2-C)	115 µM	8 mg/L (≈ 7.28 µM)	16 mg/L (≈ 14.6 µM)	>32 mg/L	4 mg/L (≈ 3.64 µM)	16 mg/L (≈ 14.6 µM)	4 mg/L (≈ 3.64 µM)	8 mg/L (≈ 7.28 µM)	8 mg/L (≈ 7.28 µM)	8 mg/L (≈ 7.28 µM)	32 mg/L (≈ 29.1 µM)	4 mg/L (≈ 3.64 µM)	16 mg/L (≈ 14.6 µM)
CCCCCCCC(=O)N[C@H](CCN)C(=O)N[C@H]1CCNC(=O)[C@H](Cc2c[nH]c3ccccc23)NC(=O)[C@H](CCN)NC(=O)[C@H](CCN)NC(=O)[C@H](CC(C)C)NC(=O)[C@@H](Cc2ccccc2)NC(=O)[C@H](CCN)NC1=O [compound 8901, nC7CO-D-Dab-cyc[L-Dab-L-Dab-D-Phe-L-Leu-L-Dab-L-Dab-L-Trp]] (Octanoyl-[dDab][Dab][Dab][dF]L[Dab][Dab]W; lactam 2-C)	> 300 µM	16 mg/L (≈ 14.9 µM)	32 mg/L (≈ 29.8 µM)	>32 mg/L	2 mg/L (≈ 1.86 µM)	8 mg/L (≈ 7.45 µM)	2 mg/L (≈ 1.86 µM)	8 mg/L (≈ 7.45 µM)	8 mg/L (≈ 7.45 µM)	8 mg/L (≈ 7.45 µM)	32 mg/L (≈ 29.8 µM)	8 mg/L (≈ 7.45 µM)	32 mg/L (≈ 29.8 µM)
CCCCCCC[C@@H](O)CC(=O)N[C@H](CCN)C(=O)N[C@H]1CCNC(=O)[C@H](Cc2ccncc2)NC(=O)[C@H](CCN)NC(=O)[C@H](CCN)NC(=O)[C@H](CC(C)C)NC(=O)[C@@H](Cc2ccccc2)NC(=O)[C@H](CCN)NC1=O [compound 8906, 3(R)OH-nC9CO-D-Dab-cyc[L-Dab-L-Dab-D-Phe-L-Leu-L-Dab-L-Dab-L-Ala(4py)]] ({Decanoyl(3R-OH)}-[dDab][Dab][Dab][dF]L[Dab][Dab][4Pal]; lactam 2-C)	> 300 µM	>32 mg/L	16 mg/L (≈ 14.8 µM)	>32 mg/L	1 mg/L (≈ 0.926 µM)	4 mg/L (≈ 3.71 µM)	0.5 mg/L (≈ 0.463 µM)	8 mg/L (≈ 7.41 µM)	2 mg/L (≈ 1.85 µM)	4 mg/L (≈ 3.71 µM)	>32 mg/L	4 mg/L (≈ 3.71 µM)	16 mg/L (≈ 14.8 µM)
CCCCCCC[C@@H](O)CC(=O)N[C@H](CCN)C(=O)N[C@H]1CCNC(=O)[C@H](Cc2cccnc2)NC(=O)[C@H](CCN)NC(=O)[C@H](CCN)NC(=O)[C@H](CC(C)C)NC(=O)[C@@H](Cc2ccccc2)NC(=O)[C@H](CCN)NC1=O [compound 8907, 3(R)OH-nC9CO-D-Dab-cyc[L-Dab-L-Dab-D-Phe-L-Leu-L-Dab-L-Dab-L-Ala(3py)]] ({Decanoyl(3R-OH)}-[dDab][Dab][Dab][dF]L[Dab][Dab][3Pal]; lactam 2-C)	> 300 µM	>32 mg/L	32 mg/L (≈ 29.6 µM)	>32 mg/L	1 mg/L (≈ 0.926 µM)	4 mg/L (≈ 3.71 µM)	1 mg/L (≈ 0.926 µM)	8 mg/L (≈ 7.41 µM)	1 mg/L (≈ 0.926 µM)	4 mg/L (≈ 3.71 µM)	>32 mg/L	4 mg/L (≈ 3.71 µM)	8 mg/L (≈ 7.41 µM)

From patent publication US11279733B2, “Peptide antibiotics” (priority 2017, dated 2022)
